# Laboratory results reported in patent publication US9751854B2 (Millennium Pharmaceuticals, Inc., priority 2014, dated 2017).
# pIC50: −log10 of the molar value.
# Target: human VPS34 (Homo sapiens (Human), UniProt Q8NEB9)
# Experiment: Human VPS34 enzyme assay (Adapta TR-FRET ADP detection)
# Format: biochemical
# Settings: not given
# Chain of human VPS34 (Q8NEB9 whole entry): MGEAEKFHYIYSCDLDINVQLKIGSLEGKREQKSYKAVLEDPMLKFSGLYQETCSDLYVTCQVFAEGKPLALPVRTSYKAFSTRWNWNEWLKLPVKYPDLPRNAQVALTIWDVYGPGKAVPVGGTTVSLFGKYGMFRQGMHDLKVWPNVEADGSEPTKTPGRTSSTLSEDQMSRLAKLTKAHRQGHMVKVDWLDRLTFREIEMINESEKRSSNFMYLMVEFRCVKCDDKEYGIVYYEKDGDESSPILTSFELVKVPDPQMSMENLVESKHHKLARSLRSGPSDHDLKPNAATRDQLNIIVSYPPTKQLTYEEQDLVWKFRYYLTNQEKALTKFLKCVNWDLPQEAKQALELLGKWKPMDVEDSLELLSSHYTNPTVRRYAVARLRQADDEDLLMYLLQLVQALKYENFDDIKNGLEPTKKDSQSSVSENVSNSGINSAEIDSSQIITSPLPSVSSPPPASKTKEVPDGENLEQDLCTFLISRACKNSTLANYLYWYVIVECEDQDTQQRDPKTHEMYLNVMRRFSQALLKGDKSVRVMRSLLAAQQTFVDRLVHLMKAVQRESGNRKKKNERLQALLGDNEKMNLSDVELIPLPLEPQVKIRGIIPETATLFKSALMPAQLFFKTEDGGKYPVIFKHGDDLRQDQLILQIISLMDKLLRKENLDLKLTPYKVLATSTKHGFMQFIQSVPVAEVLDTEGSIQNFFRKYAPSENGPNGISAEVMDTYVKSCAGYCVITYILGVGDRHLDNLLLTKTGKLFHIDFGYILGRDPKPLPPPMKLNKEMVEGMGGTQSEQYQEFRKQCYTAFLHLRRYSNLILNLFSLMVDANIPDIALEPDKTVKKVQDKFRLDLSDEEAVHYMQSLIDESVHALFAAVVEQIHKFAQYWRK
SMILES,pIC50,Percent Inhibition
CC(=O)Nc1cc(-c2cnc(N)c(S(=O)(=O)CC3CC3)c2)ccn1 [Compound I-208],7.30 to 8.00,>99%
"Cc1cc(Nc2cc(-c3cnc(Cl)c(NS(=O)(=O)c4ccc(F)cc4F)c3C)ccn2)nc(C)n1 [Compound I-218, N-{6-chloro-2′-[(2,6-dimethylpyrimidin-4-yl)amino]-4-methyl-3,4′-bipyridin-5-yl}-2,4-difluorobenzenesulfonamide]",,>99%

# Same assay, conditions: IC50 range class
row,SMILES,pIC50
1,"CC(=O)Nc1cc(-c2cnc(C)c(NS(=O)(=O)c3ccc(F)cc3F)c2)c(C)cn1 [Compound I-177, N-(5-{[(2,4-difluorophenyl)sulfonyl]amino}-5′,6-dimethyl-3,4′-bipyridin-2′-yl)acetamide]",7.30 to 8.00
2,"CC(=O)Nc1cc(-c2cnc(C)c(NS(=O)(=O)c3cc(C)ccc3C)c2)ccn1 [Compound I-178, N-(5-{[(2,5-dimethylphenyl)sulfonyl]amino}-6-methyl-3,4′-bipyridin-2′-yl)acetamide]",> 8.00
3,"CC(=O)Nc1cc(-c2cnc(N)c(C(=O)Nc3cccc(F)c3F)c2)ccn1 [Compound I-179, 2′-acetamido-6-amino-N-(2,3-difluorophenyl)-3,4′-bipyridine-5-carboxamide]",> 8.00
4,COC(=O)Nc1cc(-c2cncc(C(=O)C3CC3)c2)ccn1 [Compound I-180],7.00 to 7.30
5,"CC(=O)Nc1cc(-c2cnc(N)c(N3CCCS3(=O)=O)c2)ccn1 [Compound I-181, N-[6-amino-5-(1,1-dioxidoisothiazolidin-2-yl)-3,4′-bipyridin-2′-yl]acetamide]",> 8.00
6,"CC(=O)Nc1cc(-c2cnc(C)c(NS(=O)(=O)c3ccc(C)cc3F)c2)ccn1 [Compound I-182, N-(5-{[(2-fluoro-4-methylphenyl)sulfonyl]amino}-6-methyl-3,4′-bipyridin-2′-yl)acetamide]",> 8.00
7,"CC(=O)Nc1cc(-c2cnc(N)c(S(=O)(=O)NCC3CCCCC3)c2)ccn1 [Compound I-183, N-{6-amino-5-[(cyclohexylmethyl)sulfamoyl]-3,4′-bipyridin-2′-yl}acetamide]",> 8.00
8,"CC(=O)Nc1cc(-c2cncc(C=O)c2)ccn1 [Compound I-184, N-(5-formyl-3,4′-bipyridin-2′-yl)acetamide]",< 7.00
9,"CC(=O)Nc1cc(-c2cnc(C)c(NS(=O)(=O)c3ccc(F)cc3)c2)ccn1 [Compound I-185, N-(5-{[(4-fluorophenyl)sulfonyl]amino}-6-methyl-3,4′-bipyridin-2′-yl)acetamide]",> 8.00
10,CC(=O)Nc1cc(-c2cnc(N)c(S(=O)(=O)N(C)C)c2)c(F)cn1 [Compound I-186],7.30 to 8.00
11,"CC(=O)Nc1cc(-c2cnc(N)c(C(=O)NC34CC(C3)C4)c2)ccn1 [Compound I-187, 2′-acetamido-6-amino-N-(bicyclo[1.1.1]pent-1-yl)-3,4′-bipyridine-5-carboxamide]",> 8.00
12,"CC(=O)Nc1cc(-c2cncc(/C=C/C(=O)c3ccc(F)cc3)c2)ccn1 [Compound I-188, N-{5-[(1E)-3-(4-fluorophenyl)-3-oxoprop-1-en-1-yl]-3,4′-bipyridin-2′-yl}acetamide]",7.00 to 7.30
13,"CC(=O)Nc1cc(-c2cnc3[nH]ncc3c2)ccn1 [Compound I-189, N-[4-(1H-pyrazolo[3,4-b]pyridin-5-yl)pyridin-2-yl]acetamide]",7.00 to 7.30
14,"CC(=O)Nc1cc(-c2cncc(S(=O)(=O)NC34CC(C3)C4)c2)ccn1 [Compound I-190, N-[5-(bicyclo[1.1.1]pent-1-ylsulfamoyl)-3,4′-bipyridin-2′-yl]acetamide]",7.30 to 8.00
15,"CC(=O)Nc1cc(-c2cc(S(C)(=O)=O)c[n+]([O-])c2)ccn1 [Compound I-191, N-{4-[5-(methylsulfonyl)-1-oxidopyridin-3-yl]pyridin-2-yl}acetamide]",< 7.00
16,"CC(=O)Nc1cc(-c2cncc(N3CCCS3(=O)=O)c2)ccn1 [Compound I-192, N-[5-(1,1-dioxidoisothiazolidin-2-yl)-3,4′-bipyridin-2′-yl]acetamide]",7.00 to 7.30
17,"CC(=O)Nc1cc(-c2cnc(C)c(NC(C)=O)c2)ccn1 [Compound I-193, N,N′-(6-methyl-3,4′-bipyridine-2′,5-diyl)diacetamide]",7.00 to 7.30
18,"CC(=O)Nc1cc(-c2cncc(C(C)=O)c2)ccn1 [Compound I-194, N-(5-acetyl-3,4′-bipyridin-2′-yl)acetamide]",< 7.00
19,"COC(=O)Nc1cc(-c2cnc(C)c(NS(=O)(=O)c3ccc(F)cc3F)c2)ccn1 [Compound I-195, methyl (5-{[(2,4-difluorophenyl)sulfonyl]amino}-6-methyl-3,4′-bipyridin-2′-yl)carbamate]",> 8.00
20,"CC(=O)Nc1cc(-c2cnc(C)c(NS(=O)(=O)c3ccc(C(F)(F)F)cc3Cl)c2)ccn1 [Compound I-196, N-[5-({[2-chloro-4-(trifluoromethyl)phenyl]sulfonyl}amino)-6-methyl-3,4′-bipyridin-2′-yl]acetamide]",> 8.00
21,"CC(=O)Nc1cc(-c2cnc(N)c(S(=O)(=O)Cc3ccccc3F)c2)ccn1 [Compound I-197, N-{6-amino-5-[(2-fluorobenzyl)sulfonyl]-3,4′-bipyridin-2′-yl]acetamide]",7.30 to 8.00
22,"CC(=O)Nc1cc(-c2cncc(C(=O)/C=C/c3ccc(F)cc3)c2)ccn1 [Compound I-198, N-[5-[(2E)-3-(4-fluorophenyl)prop-2-enoyl]-3,4′-bipyridin-2′-yl}acetamide]",< 7.00

row,SMILES,pIC50
1,"CC(=O)Nc1cc(-c2cnc3ccn(S(=O)(=O)C4CC4)c3c2)ccn1 [Compound I-199, N-{4-[1-(cyclopropylsulfonyl)-1H-pyrrolo[3,2-b]pyridin-6-yl]pyridin-2-yl}acetamide]",> 8.00
2,"CC(=O)Nc1cc(-c2cnc(N)c(C(=O)N3CCC3)c2)ccn1 [Compound I-200, N-[6-amino-5-(azetidin-1-ylcarbonyl)-3,4′-bipyridin-2′-yl]acetamide]",> 8.00
3,"CCc1ncc(-c2ccnc(NC(C)=O)c2)cc1NS(=O)(=O)c1ccc(F)cc1F [Compound I-201, N-(5-{[(2,4-difluorophenyl)sulfonyl]amino}-6-ethyl-3,4′-bipyridin-2′-yl)acetamide]",> 8.00
4,"CC(=O)Nc1cc(-c2cncc(N(CC3CC3)S(C)(=O)=O)c2)ccn1 [Compound I-202, N-{5-[(cyclopropylmethyl)(methylsulfonyl)amino]-3,4′-bipyridin-2′-yl}acetamide]",7.00 to 7.30
5,"CC(=O)Nc1cc(-c2cnc(C)c(NS(=O)(=O)c3ccsc3)c2)ccn1 [Compound I-203, N-{6-methyl-5-[(3-thienylsulfonyl)amino]-3,4′-bipyridin-2′-yl}acetamide]",> 8.00
6,"CC(=O)Nc1cc(-c2cnc(N)c(S(=O)(=O)Nc3cccnc3)c2)ccn1 [Compound I-204, N-[6-amino-5-(pyridin-3-ylsulfamoyl)-3,4′-bipyridin-2′-yl]acetamide]",> 8.00
7,"CC(=O)Nc1cc(-c2cnc(N)c(S(=O)(=O)Cc3cccnc3)c2)ccn1 [Compound I-205, N-{6-amino-5-[(pyridin-3-ylmethyl)sulfonyl]-3,4′-bipyridin-2′-yl}acetamide]",7.30 to 8.00
8,"CC(=O)Nc1cc(-c2cnc(C)c(NS(=O)(=O)c3ccc(F)cc3Cl)c2)ccn1 [Compound I-206, N-(5-{[(2-chloro-4-fluorophenyl)sulfonyl]amino}-6-methyl-3,4′-bipyridin-2′-yl)acetamide]",> 8.00
9,"CC(=O)Nc1cc(-c2cnc(N)c(S(=O)(=O)Nc3ccc(Cl)cc3)c2)ccn1 [Compound I-207, N-{6-amino-5-[(4-chlorophenyl)sulfamoyl]-3,4′-bipyridin-2′-yl}acetamide]",> 8.00
10,"CC(=O)Nc1cc(-c2cnc3[nH]ncc3c2)c(C)cn1 [Compound I-209, N-[5-methyl-4-(1H-pyrazolo[3,4-b]pyridin-5-yl)pyridin-2-yl]acetamide]",< 7.00
11,"CC(=O)Nc1cc(-c2cnc(N)c(C(=O)NC3CCOCC3)c2)ccn1 [Compound I-210, 2′-acetamido-6-amino-N-(tetrahydro-2H-pyran-4-yl)-3,4′-bipyridine-5-carboxamide]",7.00 to 7.30
12,"CC(=O)Nc1cc(-c2cnc(C)c(NS(=O)(=O)c3ccccc3C)c2)ccn1 [Compound I-211, N-(6-methyl-5-{[(2-methylphenyl)sulfonyl]amino}-3,4′-bipyridin-2′-yl)acetamide]",> 8.00
13,"CC(=O)Nc1cc(-c2cnc(C)c(N(C)S(=O)(=O)C3CC3)c2)ccn1 [Compound I-212, N-{5-[(cyclopropylsulfonyl)(methyl)amino]-6-methyl-3,4′-bipyridin-2′-yl}acetamide]",7.00 to 7.30
14,"CC(=O)Nc1cc(-c2cnc(Cl)c(C(=O)N(C)C)c2)ccn1 [Compound I-213, 2′-acetamido-6-chloro-N,N-dimethyl-3,4′-bipyridine-5-carboxamide]",7.00 to 7.30
15,"CC(=O)Nc1cc(-c2cnc(C)c(NS(=O)(=O)N3CCCCC3)c2)ccn1 [Compound I-214, N-{6-methyl-5-[(piperidin-1-ylsulfonyl)amino]-3,4′-bipyridin-2′-yl}acetamide]",> 8.00
16,"Cc1nccc(Nc2cc(-c3cnc(Cl)c(S(=O)(=O)NC4CCC4)c3)ccn2)n1 [Compound I-215, 6-chloro-N-cyclobutyl-2′-((2-methylpyrimidin-4-yl)amino)-[3,4′-bipyridine]-5-sulfonamide]",7.30 to 8.00
17,"N=C(N)NC(=O)c1cc(-c2ccnc(Nc3ccncn3)c2)cnc1N [Compound I-216, 6-Amino-N-carbamimidoyl-2′-(pyrimidin-4-ylamino)-3,4′-bipyridine-5-carboxamide]",7.00 to 7.30
18,"Cc1cc(Nc2cc(-c3cnc(Cl)c(NS(=O)(=O)c4ccc(F)cc4F)c3C)ccn2)nc(C)n1 [Compound I-218, N-{6-chloro-2′-[(2,6-dimethylpyrimidin-4-yl)amino]-4-methyl-3,4′-bipyridin-5-yl}-2,4-difluorobenzenesulfonamide]",7.30 to 8.00
19,"CC(=O)Nc1cc(-c2cnc(C)c(NS(=O)(=O)c3ccc(F)cc3F)c2)cc[n+]1[O-] [Compound I-219, N-[4-(5-{[(2,4-difluorophenyl)sulfonyl]amino}-6-methylpyridin-3-yl)-1-oxidopyridin-2-yl]acetamide]",7.00 to 7.30
20,"COc1ncc(-c2ccnc(NC(C)=O)c2)cc1NS(=O)(=O)N(C)C [Compound I-220, N-{5-[(dimethylsulfamoyl)amino]-6-methoxy-3,4′-bipyridin-2′-yl}acetamide]",7.30 to 8.00
21,"Cc1nccc(Nc2cc(-c3cnc(C)c(C(=O)N4CC(F)(F)C4)c3)ccn2)n1 [Compound I-221, (3,3-difluoroazetidin-1-yl){6-methyl-2′-[(2-methylpyrimidin-4-yl)amino]-3,4′-bipyridin-5-yl]methanone]",7.30 to 8.00
